# Data: paper PMC6270614 (Molecules, 2013)
# Like-named read-outs stand apart in the source and are kept apart here.
# Legend:
# CB1 receptor = details: cited from earlier work
# CB2 [1] = biological target: CB2; set-up: method as in PMID 21885167; details: Figure 1; cited from earlier work
# [2] = biological target: human cannabinoid CB1 receptor (Homo sapiens, UniProt P21554); assay: CB1 receptor radioligand ([3H]CP-55,940) displacement binding assay; details: for inhibition at 1 µM: read-out: displacement of [3H]CP-55,940 in the preliminary screen (printed in the CB1 Ki column)
# Method: In all cases, Ki values were calculated by applying the Cheng-Prusoff equation [34] to the IC50 values (obtained by GraphPad, GraphPad Software, Inc., La Jolla, CA, USA) for the displacement of the bound radioligand by increasing concentrations of the test compounds (after three separate experiments for each compound).
# CB2 [3] = system: CB2; set-up: method as in PMID 21420860; details: Figure 1; read-out: IC50 cAMP (CB2); cited from earlier work
# CB1 [4] = system: CB1; set-up: method as in PMID 21420860; details: Figure 1; read-out: IC50 cAMP (CB1); cited from earlier work
# CB2 [5] = system: CB2; set-up: method as in PMID 21669533; details: Figure 1; cited from earlier work
# CB1 [6] = system: CB1; set-up: method as in PMID 21669533; details: Figure 1; cited from earlier work
# [7] = CoMFA training and test set input, read-out: Experimental activity (pIC50) (converted)
# [8] = CB1 (Ki, nM), displacement of 0.5 nM [3H]CP-55,940, means ± SEM, n = 3, Cheng-Prusoff from IC50
# [9] = Experimental activity (pIC50, M), CoMFA training and test set input
# Chain of human cannabinoid CB1 receptor (P21554 whole entry): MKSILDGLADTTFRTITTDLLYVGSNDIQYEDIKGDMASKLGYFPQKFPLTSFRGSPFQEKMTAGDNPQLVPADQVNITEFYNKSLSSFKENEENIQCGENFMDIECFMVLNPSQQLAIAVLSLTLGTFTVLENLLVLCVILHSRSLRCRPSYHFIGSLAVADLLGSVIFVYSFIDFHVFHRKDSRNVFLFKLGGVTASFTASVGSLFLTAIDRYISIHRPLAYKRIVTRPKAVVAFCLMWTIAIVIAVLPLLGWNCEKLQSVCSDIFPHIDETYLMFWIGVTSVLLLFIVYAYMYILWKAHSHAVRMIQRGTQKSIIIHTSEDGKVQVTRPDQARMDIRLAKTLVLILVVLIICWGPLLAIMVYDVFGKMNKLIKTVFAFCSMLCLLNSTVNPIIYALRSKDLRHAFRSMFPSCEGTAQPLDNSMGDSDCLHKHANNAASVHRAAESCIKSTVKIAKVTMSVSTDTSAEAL
SMILES,melting point,"IC50 [2, 7]",Ki ([2]; read-out: CB1 (Ki)),further results
CCCCCn1c(C)c(C(=O)c2ccccc2I)c2ccccc21 [AM679],–,–,–,Ki (CB1 receptor; non-selective CB1 and CB2 agonist): 13.5 nM
CCCCCn1c(C)c(C(=O)c2cccc3ccccc23)c2cccnc21 [Abbott],–,–,–,pKi (CB1) (CB1 receptor; Figure 1): 7.9; pKi (CB2) (CB2 [1]): 7.3
"c1ccc2c(Cn3c(-c4ccncc4)nc4ccccc43)cccc2c1 [Compound 41, 1-(Naphthalen-1-ylmethyl)-2-(pyridin-4-yl)-1H-benzo[d]imidazole]",163.3 to 163.8 °C,274 nM,149 ± 1.9 nM,–
"Fc1ccc2c(c1)nc(-c1ccncc1)n2Cc1cccc2ccccc12 [Compound 42, 5-Fluoro-1-(naphthalen-1-ylmethyl)-2-(pyridin-4-yl)-1H-benzo[d]imidazole]",151.5 to 152.5 °C,–,–,inhibition at 1 µM [2]: < 50%
"Fc1ccc2nc(-c3ccncc3)n(Cc3cccc4ccccc34)c2c1 [Compound 43, 6-Fluoro-1-(naphthalen-1-ylmethyl)-2-(pyridin-4-yl)-1H-benzo[d]imidazole]",167.4 to 168.1 °C,1120 nM,614 ± 54.7 nM,–
"Cc1cc2nc(-c3ccncc3)n(Cc3cccc4ccccc34)c2cc1C [Compound 44, 5,6-Dimethyl-1-(naphthalen-1-ylmethyl)-2-(pyridin-4-yl)-1H-benzo[d]imidazole]",156.8 to 157.6 °C,–,–,"Ki [2, 8]: 4.84 ± 2 nM; IC50 [2, 9]: 8.87 nM; IC50 ([2]; IC50 (CB1 displacement), displacement of [3H]CP-55,940): < 10 nM"
"c1ccc(-c2nc3ccccc3n2Cc2ccc3ccccc3c2)nc1 [Compound 45, 1-(Naphthalen-2-ylmethyl)-2-(pyridin-2-yl)-1H-benzo[d]imidazole]",150.7 to 151.8 °C,–,–,"Ki [2, 8]: 31.8 ± 12 nM; IC50 [2, 9]: 58.3 nM"
"Fc1ccc2c(c1)nc(-c1ccccn1)n2Cc1ccc2ccccc2c1 [Compound 46, 5-Fluoro-1-(naphthalen-2-ylmethyl)-2-(pyridin-2-yl)-1H-benzo[d]imidazole]",165.7 to 166.4 °C,–,–,inhibition at 1 µM [2]: < 50%
"Fc1ccc2nc(-c3ccccn3)n(Cc3ccc4ccccc4c3)c2c1 [Compound 47, 6-Fluoro-1-(naphthalen-2-ylmethyl)-2-(pyridin-2-yl)-1H-benzo[d]imidazole]",170.5 to 171.3 °C,–,–,inhibition at 1 µM [2]: < 50%
"c1cncc(-c2nc3ccccc3n2Cc2ccc3ccccc3c2)c1 [Compound 49, 1-(Naphthalen-2-ylmethyl)-2-(pyridin-3-yl)-1H-benzo[d]imidazole]",146.3 to 147 °C,3380 nM,1840 ± 79.8 nM,–
"Fc1ccc2c(c1)nc(-c1cccnc1)n2Cc1ccc2ccccc2c1 [Compound 50, 5-Fluoro-1-(naphthalen-2-ylmethyl)-2-(pyridin-3-yl)-1H-benzo[d]imidazole]",175.7 to 176.8 °C,600 nM,327 ± 60 nM,–
"Cc1cc2nc(-c3cccnc3)n(Cc3ccc4ccccc4c3)c2cc1C [Compound 52, 5,6-Dimethyl-1-(naphthalen-2-ylmethyl)-2-(pyridin-3-yl)-1H-benzo[d]imidazole]",138.5 to 139.5 °C,–,–,"Ki [2, 8]: 140 ± 10.1 nM; IC50 [2, 9]: 256 nM"
"Fc1ccc2c(c1)nc(-c1ccncc1)n2Cc1ccc2ccccc2c1 [Compound 54, 5-Fluoro-1-(naphthalen-2-ylmethyl)-2-(pyridin-4-yl)-1H-benzo[d]imidazole]",177.8 to 178.5 °C,–,–,"Ki [2, 8]: 44.4 ± 5.5 nM; IC50 [2, 9]: 81.5 nM"
"Fc1ccc2nc(-c3ccncc3)n(Cc3ccc4ccccc4c3)c2c1 [Compound 55, 6-Fluoro-1-(naphthalen-2-ylmethyl)-2-(pyridin-4-yl)-1H-benzo[d]imidazole]",163.5 to 164.1 °C,1040 nM,567 ± 7 nM,–
"Cc1cc2nc(-c3ccncc3)n(Cc3ccc4ccccc4c3)c2cc1C [Compound 56, 5,6-Dimethyl-1-(naphthalen-2-ylmethyl)-2-(pyridin-4-yl)-1H-benzo[d]imidazole]",133.7 to 134.5 °C,442 nM,241 ± 10 nM,–
O=C(c1cccc(Cl)c1Cl)c1nc(CN2CCC(F)(F)CC2)c2ccccn12 [Merck],–,–,–,IC50 (CB2 [3]): 0.3 nM; IC50 (CB1 [4]): 90 nM
CCS(=O)(=O)c1ccc2c(c1)nc(C(C)(C)C)n2C[C@@H]1CCCO1 [Pfizer],–,–,–,EC50 (CB2 [5]): 11.7 nM; EC50 (CB1 [6]): > 10000 nM
